Data published in the OligoGym collection.
Several values for one entry are separate records, joined by “and”; a condition that tells them apart may be missing. Equal entries are not always repeated. After the bases stand the sugars from the 5' end (letter, count) and the backbone: PS all phosphorothioate, else s phosphorothioate and o phosphodiester by linkage. Methylation of C is not given here. e = 2'-O-(2-methoxyethyl) (MOE); l = locked nucleic acid (LNA); k = constrained ethyl (cEt); d = 2'-deoxy (DNA)

What was measured:
[1] = target: APOL1; conditions: ASO
[2] = target: SNHG14; conditions: ASO, Human Neuronal Cell

Row | Sequence | target mRNA inhibition ([1]; A431, 1 µM) | target mRNA inhibition ([1]; A431, 2 µM) | target mRNA inhibition ([1]; A431, 0.0625 µM) | target mRNA inhibition ([1]; A431, 0.25 µM) | further results
1 | CAGTTTTGTAAGTGCA (sugars kkkddddkdkdkdddd, PS) | 92% | 93% |  |  | target mRNA inhibition ([1]; A431, 0.04 µM): 57% and 50%
2 | GAACGCAATGCTGACT (sugars kkkddddkekekdddd, PS) |  | 48% |  |  | 
3 | GGGAAATGAACGCAAT (sugars k4 d9 k3, PS) | 83% |  | 22% | 60% | 
4 | TTGTAAGTGCAACCAA (sugars k2 d4 e4 k2 d4, PS) |  | 70% |  |  | 
5 | TGATGTGGGACTTGTT (sugars k4 d9 k3, PS) | 93% |  | 61% | 84% | 
6 | TAGTGCTATAGAGGGA (sugars k3 d10 k3, PS) | 95% |  | 57% | 86% | 
7 | GTATTTCTTGATGTGG (sugars kkkddddkdkdkdddd, PS) | 86% | 92% | 59% | 82% | target mRNA inhibition ([1]; A431, 0.0156 µM): 24%
8 | ACACATCATTGGGTTA (sugars k4 d9 k3, PS) | 87% |  | 54% | 75% | 
9 | TAATTCTATTAGAGGG (sugars kkkddddkekekdddd, PS) |  | 41% |  |  | 
10 | ATCAGATGGGTACTTC (sugars kkkddddkekekdddd, PS) |  | 54% |  |  | 
11 | GCTAATTTTCTGACTG (sugars kkkddddkdkdkdddd, PS) | 93% | 93% | 66% | 85% | target mRNA inhibition ([1]; A431, 0.0156 µM): 40%; target mRNA inhibition ([1]; A431, 0.04 µM): 34%
12 | GTTATGAAATTATTGG (sugars kkdddddkekeddddd, PS) |  | 68% |  |  | 
13 | GGCAGTTTTGTAAGTG (sugars kkkddddkekekdddd, PS) |  | 32% |  |  | 
14 | CACAGCATTGAGTACA (sugars k4 d9 k3, PS) | 86% |  | 44% | 66% | 
15 | CAGTTTTGTAAGTGCA (sugars kddddkekekeddddd, PS) |  | 48% |  |  | 
16 | AAGATTGGCTCTGGCT (sugars kkddddkdkdkddddd, PS) |  | 65% |  |  | 
17 | GGGAATTATGGAATTG (sugars k3 d4 k3 e1 d5, PS) |  | 77% |  |  | 
18 | TTTATACCAGTGTCTT (sugars kkdddddkekeddddd, PS) |  | 84% |  |  | 
19 | ACACATCATTGGGTTA (sugars k2 d4 e3 k2 d5, PS) |  | 51% |  |  | 
20 | AGTATTGCCAGCTAAG (sugars k2 d4 e4 k2 d4, PS) |  | 59% |  |  | 
21 | TGGGCGAGCGATTGTC (sugars k4 d9 k3, PS) | 83% |  | 42% | 70% | 
22 | TCAGATGGGTACTTCT (sugars kkddddkdkdkddddd, PS) |  | 88% |  |  | 
23 | TTTATACCAGTGTCTT (sugars kkddddekekeddddd, PS) |  | 90% |  |  | 
24 | CTTCTTATGTTATCCT (sugars k4 d9 k3, PS) | 85% |  | 35% | 72% | 
25 | CTTTATACCAGTGTCT (sugars kkddddkekekddddd, PS) |  | 86% |  |  | 
26 | CAGTTTTGTAAGTGCA (sugars k2 d4 e3 k2 d5, PS) |  | 92% |  |  | 

Row | Sequence | target mRNA inhibition ([1]; A431, 1 µM) | target mRNA inhibition ([1]; A431, 2 µM) | target mRNA inhibition ([1]; A431, 0.0625 µM) | target mRNA inhibition ([1]; A431, 0.25 µM) | further results
27 | TAATGTCTCAAACTCC (sugars k4 d9 k3, PS) | 80% |  | 24% | 50% | 
28 | TCAGATGGGTACTTCT (sugars k2 d4 e3 k2 d5, PS) |  | 88% |  |  | 
29 | GTATTTCTTGATGTGG (sugars kkddddkekekddddd, PS) |  | 75% |  |  | 
30 | TAATTCTATTAGAGGG (sugars k2 d4 e3 k2 d5, PS) |  | 59% |  |  | 
31 | ATTCTATTAGAGGGCT (sugars kddddkekekeddddd, PS) |  | 34% |  |  | 
32 | TGTAAGTGCAACCAAT (sugars kkddddkekekkdddd, PS) |  | 43% |  |  | 
33 | GAGTATTGTTTTTGTG (sugars k3 d5 k3 d5, PS) | 95% and 94% | 93% and 94% | 74% and 66% | 91% and 88% | target mRNA inhibition ([1]; A431, 0.0156 µM): 37%
34 | GTCATTAGTGCTATAG (sugars k4 d9 k3, PS) | 93% |  | 68% | 87% | 
35 | GCAGTTTTGTAAGTGC (sugars kkkddddkekeddddd, PS) |  | 60% |  |  | 
36 | TCTATTAGAGGGCTAG (sugars kkddddekekeddddd, PS) |  | 67% |  |  | 
37 | TGTTATATTTGATCCT (sugars k3 d10 k3, PS) | 98% |  | 67% | 90% | 
38 | ATGCTAATTTTCTGAC (sugars kkddddekekeddddd, PS) |  | 95% |  |  | 
39 | AAGTATTGCCAGCTAA (sugars kdddddkekekddddd, PS) |  | 54% |  |  | 
40 | GTGTGATAACTAGCTG (sugars k4 d9 k3, PS) | 93% |  | 78% | 88% | 
41 | GCTTTAAACTCAGGTG (sugars kkddddkekekddddd, PS) |  | 86% |  |  | 
42 | TTATGAAATTATTGGT (sugars k2 d4 e3 k2 d5, PS) |  | 39% |  |  | 
43 | GTATTTCTTGATGTGG (sugars kkkddddkekeddddd, PS) | 97% | 98% | 80% | 96% | target mRNA inhibition ([1]; A431, 0.0156 µM): 50%
44 | GTCATATCAGATGGGT (sugars k4 d9 k3, PS) | 91% |  | 52% | 77% | 
45 | GCTAATTTTCTGACTG (sugars k4 d9 k3, PS) | 98% and 91% |  | 77% and 60% | 95% and 85% | 
46 | TTTTCACCATAGCACG (sugars k4 d9 k3, PS) | 85% |  | 33% | 63% | 
47 | TGTTATATTTGATCCT (sugars kddddkekekeddddd, PS) |  | 51% |  |  | 
48 | ACTCCTTATGTTTTGA (sugars k4 d9 k3, PS) | 91% |  | 46% | 75% | 
49 | GTGTATTTCTTGATGT (sugars kkddddekekeddddd, PS) | 92% | 94% | 65% | 83% | target mRNA inhibition ([1]; A431, 0.0156 µM): 36%
50 | CGCAATGCTGACTTGG (sugars k2 d4 e3 k2 d5, PS) |  | 88% |  |  | 
51 | GGCAAGGCTAAGTTCC (sugars k4 d9 k3, PS) | 84% |  | 41% | 75% | 
52 | TATTTCTTGATGTGGT (sugars k2 d4 e4 k2 d4, PS) |  | 96% |  |  | 

Row | Sequence | target mRNA inhibition ([1]; A431, 1 µM) | target mRNA inhibition ([1]; A431, 2 µM) | target mRNA inhibition ([1]; A431, 0.0625 µM) | target mRNA inhibition ([1]; A431, 0.25 µM) | further results
53 | GAGTATTGTTTTTGTG (sugars kkkddddkdkdkdddd, PS) |  | 54% |  |  | 
54 | CAGATTCTGTGTGCTC (sugars k4 d9 k3, PS) | 75% |  | 51% | 68% | 
55 | AGTTTTGTAAGTGCAA (sugars kkddddkekekddddd, PS) |  | 81% |  |  | 
56 | CGTTCCAGGCCTCATT (sugars k4 d9 k3, PS) | 82% |  | 40% | 60% | 
57 | GCTAATTTTCTGACTG (sugars kkddddekekeddddd, PS) |  | 88% |  |  | 
58 | TGAACGCAATGCTGAC (sugars k4 d9 k3, PS) | 90% |  | 32% | 74% | 
59 | CCCTTTTGGCACCTTC (sugars k4 d9 k3, PS) | 94% and 93% |  | 52% and 73% | 81% and 88% | 
60 | CTAATTTTCTGACTGT (sugars kkkddddkekekdddd, PS) |  | 90% |  |  | 
61 | GAAAATCTCAACTACCATT (sugars llddldddddddlddddll, PS) |  |  |  |  | target mRNA inhibition ([2]; 7.5 µM): 52%
62 | ATTGATTCAATTCCCTT (sugars l1 d1 l2 d9 l4, PS) |  |  |  |  | target mRNA inhibition ([2]; 7.5 µM): 67%
63 | ATCTTTCCATTTATTTCCA (sugars ldddlddddddddldddll, PS) |  |  |  |  | target mRNA inhibition ([2]; 7.5 µM): 42%
64 | AAAATCTCAACTACCATTT (sugars ldlldlddddddddlldll, PS) |  |  |  |  | target mRNA inhibition ([2]; 7.5 µM): 30%
65 | TCTTTCCATTTATTTCCATT (sugars l2 d13 l1 d2 l2, PS) |  |  |  |  | target mRNA inhibition ([2]; 7.5 µM): 42%
66 | CCACCTTAAGTAACAT (sugars l3 d10 l3, PS) |  |  |  |  | target mRNA inhibition ([2]; 0.2 µM): 30%; target mRNA inhibition ([2]; 1 µM): 43%
67 | TCATCCCTCCAAGAAA (sugars l2 d12 l2, PS) |  |  |  |  | target mRNA inhibition ([2]; 0.2 µM): -16%; target mRNA inhibition ([2]; 1 µM): -28%; target mRNA inhibition ([2]; 5 µM): -48%
68 | AAAATTATTTATACACCATC (sugars lldddllddddddllldlll, PS) |  |  |  |  | target mRNA inhibition ([2]; 7.5 µM): 63%
69 | TGAACAACTTCTATCA (sugars l3 d10 l3, PS) |  |  |  |  | target mRNA inhibition ([2]; 0.2 µM): 17%; target mRNA inhibition ([2]; 1 µM): 16%
70 | TAAGCTCCATATTTAA (sugars l3 d10 l3, PS) |  |  |  |  | target mRNA inhibition ([2]; 0.2 µM): 3%; target mRNA inhibition ([2]; 1 µM): 12%
71 | CTGTATACACCATCCCA (sugars ldddlddddddddldll, PS) |  |  |  |  | target mRNA inhibition ([2]; 7.5 µM): 68%
72 | TTATAGCCATTCTATCT (sugars ldlddddddddlddlll, PS) |  |  |  |  | target mRNA inhibition ([2]; 7.5 µM): 57%
73 | ATATTGATTCAATTCCC (sugars l1 d1 l3 d10 l2, PS) |  |  |  |  | target mRNA inhibition ([2]; 7.5 µM): 70%
74 | CTCATTTACATTATTATT (sugars l4 d12 l2, PS) |  |  |  |  | target mRNA inhibition ([2]; 0.2 µM): 34%; target mRNA inhibition ([2]; 1 µM): 44%
75 | ATCTTTCCATTTATTTCCAT (sugars lddlddddddddddddldll, PS) |  |  |  |  | target mRNA inhibition ([2]; 7.5 µM): 40%
76 | AAATTTCTCAACCTAAATTT (sugars l2 d14 l4, PS) |  |  |  |  | target mRNA inhibition ([2]; 0.2 µM): -9%; target mRNA inhibition ([2]; 1 µM): 2%
77 | TTATAGCCATTCTATCT (sugars ldddlddddddldldll, PS) |  |  |  |  | target mRNA inhibition ([2]; 7.5 µM): 5%
78 | TATTGATATTTACTCT (sugars l2 d10 l4, PS) |  |  |  |  | target mRNA inhibition ([2]; 0.2 µM): 30%; target mRNA inhibition ([2]; 1 µM): 38%
